Reference: patent publication US12404241B2 (Celgene Corporation, priority 2018, dated 2025)

Biological target: T1, AR (Homo sapiens, UniProt P10275)
T1 construct: endogenous in cells; host or cells: VCaP cells
T1 sequence (P10275 1-920): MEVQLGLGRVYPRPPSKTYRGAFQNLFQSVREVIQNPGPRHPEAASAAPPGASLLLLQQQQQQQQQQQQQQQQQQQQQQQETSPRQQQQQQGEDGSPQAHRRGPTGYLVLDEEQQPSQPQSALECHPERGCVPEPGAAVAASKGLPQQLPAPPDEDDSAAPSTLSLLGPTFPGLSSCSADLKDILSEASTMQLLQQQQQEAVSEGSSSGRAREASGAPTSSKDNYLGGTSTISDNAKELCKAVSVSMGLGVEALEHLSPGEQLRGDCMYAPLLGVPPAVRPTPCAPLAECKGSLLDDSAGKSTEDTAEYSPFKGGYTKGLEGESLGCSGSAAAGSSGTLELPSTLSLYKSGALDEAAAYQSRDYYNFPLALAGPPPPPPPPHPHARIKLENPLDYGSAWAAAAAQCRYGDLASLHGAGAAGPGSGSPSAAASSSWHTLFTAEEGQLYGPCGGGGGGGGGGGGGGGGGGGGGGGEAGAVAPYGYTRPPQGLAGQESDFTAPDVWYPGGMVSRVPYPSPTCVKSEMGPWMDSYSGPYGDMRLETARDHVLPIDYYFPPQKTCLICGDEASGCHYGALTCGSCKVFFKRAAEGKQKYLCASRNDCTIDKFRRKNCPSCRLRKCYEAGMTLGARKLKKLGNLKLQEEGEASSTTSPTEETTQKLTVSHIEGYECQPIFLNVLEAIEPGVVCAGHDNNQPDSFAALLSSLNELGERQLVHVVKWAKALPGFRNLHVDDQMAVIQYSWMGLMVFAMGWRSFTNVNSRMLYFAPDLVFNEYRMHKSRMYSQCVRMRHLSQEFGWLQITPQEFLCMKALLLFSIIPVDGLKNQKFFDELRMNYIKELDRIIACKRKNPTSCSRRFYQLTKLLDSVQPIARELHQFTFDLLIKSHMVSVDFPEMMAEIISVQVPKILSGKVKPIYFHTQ
Test: VCAP AR Degradation Assay
Format: cell-based
Conditions: for Y (AR degradation efficiency, % of DMSO control): class symbols *; for DC50: class symbols A-C, read-out: DC50
In short: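 VCaP cells treated 24 h at 37 °C with a 10-point 1:3 series (top 5 μM final; 0.1% DMSO control). Lysate AR measured by sandwich ELISA, normalized to DMSO as percent of control; DC50, EC50 and lowest AR level (Y) from four-parameter logistic fit.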

SMILES	Y (AR degradation efficiency, % of DMSO control)	DC50
CCc1cc(N2C(=S)N(c3ccc(C#N)c(C(F)(F)F)c3)C(=O)C2(C)C)ccc1OCCN1C[C@H](C)N(CC(=O)Nc2cc(Cl)cc(NC3CCC(=O)NC3=O)c2)[C@@H](C)C1 (stereo partly drawn) [Example 147, N-(3-chloro-5-(2,6-dioxopiperidin-3-ylamino)phenyl)-2-((2S,6S)-4-(2-(4-(3-(4-cyano-3-(trifluoromethyl)phenyl)-5,5-dimethyl-4-oxo-2-thioxoimidazolidin-1-yl)-2-ethylphenoxy)ethyl)-2,6-dimethylpiperazin-1-yl)acetamide]	* (0<Y<=25%)	< 0.1 µM
C[C@@H]1CN(CCOc2ccc(N3C(=S)N(c4ccc(C#N)c(C(F)(F)F)c4)C(=O)C3(C)C)cc2C(C)(F)F)CCN1CC(=O)Nc1cc(Cl)cc(NC2CCC(=O)NC2=O)c1 (stereo partly drawn) [Example 148, N-(3-chloro-5-(2,6-dioxopiperidin-3-ylamino)phenyl)-2-((R)-4-(2-(4-(3-(4-cyano-3-(trifluoromethyl)phenyl)-5,5-dimethyl-4-oxo-2-thioxoimidazolidin-1-yl)-2-(1,1-difluoroethyl)phenoxy)ethyl)-2-methylpiperazin-1-yl)acetamide]	* (0<Y<=25%)	< 0.1 µM
C[C@@H]1CN(CCOc2ccc(N3C(=S)N(c4cnc(C#N)c(C(F)(F)F)c4)C(=O)C3(C)C)cc2C(C)(F)F)CCN1CC(=O)Nc1cc(Cl)cc(NC2CCC(=O)NC2=O)c1 (stereo partly drawn) [Example 149, N-(3-chloro-5-(2,6-dioxopiperidin-3-ylamino)phenyl)-2-((R)-4-(2-(4-(3-(6-cyano-5-(trifluoromethyl)pyridin-3-yl)-5,5-dimethyl-4-oxo-2-thioxoimidazolidin-1-yl)-2-(1,1-difluoroethyl)phenoxy)ethyl)-2-methylpiperazin-1-yl)acetamide]	* (0<Y<=25%)	< 0.1 µM
CCc1cc(N2C(=S)N(c3ccc(C#N)c(C(F)(F)F)c3)C(=O)C2(C)C)ccc1OCCN1C[C@@H](C)N(CC(=O)Nc2cccc(NC3CCC(=O)NC3=O)c2)[C@@H](C)C1 (stereo partly drawn) [Example 150, 2-((2S,6R)-4-(2-(4-(3-(4-cyano-3-(trifluoromethyl)phenyl)-5,5-dimethyl-4-oxo-2-thioxoimidazolidin-1-yl)-2-ethylphenoxy)ethyl)-2,6-dimethylpiperazin-1-yl)-N-(3-(2,6-dioxopiperidin-3-ylamino)phenyl)acetamide]	* (0<Y<=25%)	< 0.1 µM
CCc1cc(N2C(=S)N(c3cnc(C#N)c(C(F)(F)F)c3)C(=O)C2(C)C)ccc1OCCN1C[C@@H](C)N(CC(=O)Nc2cccc(NC3CCC(=O)NC3=O)c2)[C@@H](C)C1 (stereo partly drawn) [Example 151, 2-((2R,6S)-4-(2-(4-(3-(6-cyano-5-(trifluoromethyl)pyridin-3-yl)-5,5-dimethyl-4-oxo-2-thioxoimidazolidin-1-yl)-2-ethylphenoxy)ethyl)-2,6-dimethylpiperazin-1-yl)-N-(3-(2,6-dioxopiperidin-3-ylamino)phenyl)acetamide]	* (0<Y<=25%)	< 0.1 µM
C[C@@H]1CN(CCOc2ccc(N3C(=S)N(c4ccc(C#N)c(C(F)(F)F)c4)C(=O)C3(C)C)cc2CC(F)F)CCN1CC(=O)Nc1cc(Cl)cc(NC2CCC(=O)NC2=O)c1 (stereo partly drawn) [Example 152, N-(3-chloro-5-(2,6-dioxopiperidin-3-ylamino)phenyl)-2-((R)-4-(2-(4-(3-(4-cyano-3-(trifluoromethyl)phenyl)-5,5-dimethyl-4-oxo-2-thioxoimidazolidin-1-yl)-2-(2,2-difluoroethyl)phenoxy)ethyl)-2-methylpiperazin-1-yl)acetamide]	* (0<Y<=25%)	< 0.1 µM
C[C@@H]1CN(CCOc2ccc(N3C(=S)N(c4ccc(C#N)c(C(F)(F)F)c4)C(=O)C3(C)C)cc2CC(F)F)CCN1CC(=O)Nc1cccc(NC2CCC(=O)NC2=O)c1 (stereo partly drawn) [Example 153, 2-((R)-4-(2-(4-(3-(4-cyano-3-(trifluoromethyl)phenyl)-5,5-dimethyl-4-oxo-2-thioxoimidazolidin-1-yl)-2-(2,2-difluoroethyl)phenoxy)ethyl)-2-methylpiperazin-1-yl)-N-(3-(2,6-dioxopiperidin-3-ylamino)phenyl)acetamide]	* (0<Y<=25%)	< 0.1 µM
CCc1cc(N2C(=S)N(c3ccc(C#N)c(C(F)(F)F)c3)C(=O)C2(C)C)ccc1OCCN1CCN(CC(=O)Nc2cc(C#N)cc(NC3CCC(=O)NC3=O)c2)[C@H](C)C1 (stereo partly drawn) [Example 154, 2-((R)-4-(2-(4-(3-(4-cyano-3-(trifluoromethyl)phenyl)-5,5-dimethyl-4-oxo-2-thioxoimidazolidin-1-yl)-2-ethylphenoxy)ethyl)-2-methylpiperazin-1-yl)-N-(3-cyano-5-(2,6-dioxopiperidin-3-ylamino)phenyl)acetamide]	* (0<Y<=25%)	< 0.1 µM
CCc1cc(N2C(=S)N(c3cnc(C#N)c(C(F)(F)F)c3)C(=O)C2(C)C)ccc1OCCN1CCN(CC(=O)Nc2cc(C#N)cc(NC3CCC(=O)NC3=O)c2)[C@H](C)C1 (stereo partly drawn) [Example 155, N-(3-cyano-5-(2,6-dioxopiperidin-3-ylamino)phenyl)-2-((R)-4-(2-(4-(3-(6-cyano-5-(trifluoromethyl)pyridin-3-yl)-5,5-dimethyl-4-oxo-2-thioxoimidazolidin-1-yl)-2-ethylphenoxy)ethyl)-2-methylpiperazin-1-yl)acetamide]	* (0<Y<=25%)	< 0.1 µM
C[C@@H]1CN(CCOc2ccc(N3C(=S)N(c4ccc(C#N)c(C(F)(F)F)c4)C(=O)C3(C)C)cc2CC(F)F)CCN1CC(=O)Nc1cc(NC2CCC(=O)NC2=O)ccc1F (stereo partly drawn) [Example 156, 2-((R)-4-(2-(4-(3-(4-cyano-3-(trifluoromethyl)phenyl)-5,5-dimethyl-4-oxo-2-thioxoimidazolidin-1-yl)-2-(2,2-difluoroethyl)phenoxy)ethyl)-2-methylpiperazin-1-yl)-N-(5-(2,6-dioxopiperidin-3-ylamino)-2-fluorophenyl)acetamide]	* (0<Y<=25%)	< 0.1 µM
CC(F)(F)c1cc(N2C(=S)N(c3ccc(C#N)c(C(F)(F)F)c3)C(=O)C2(C)C)ccc1OCCN1CCN(CC(=O)Nc2cc(Cl)cc(NC3CCC(=O)NC3=O)c2)CC1 (stereo not shown) [Example 157, N-(3-chloro-5-(2,6-dioxopiperidin-3-ylamino)phenyl)-2-(4-(2-(4-(3-(4-cyano-3-(trifluoromethyl)phenyl)-5,5-dimethyl-4-oxo-2-thioxoimidazolidin-1-yl)-2-(1,1-difluoroethyl)phenoxy)ethyl)piperazin-1-yl)acetamide]	* (0<Y<=25%)	< 0.1 µM
C[C@@H]1CN(CCOc2ccc(N3C(=S)N(c4ccc(C#N)c(C(F)(F)F)c4)C(=O)C3(C)C)cc2CC(F)F)CCN1CC(=O)Nc1cc(F)cc(NC2CCC(=O)NC2=O)c1 (stereo partly drawn) [Example 158, 2-((R)-4-(2-(4-(3-(4-cyano-3-(trifluoromethyl)phenyl)-5,5-dimethyl-4-oxo-2-thioxoimidazolidin-1-yl)-2-(2,2-difluoroethyl)phenoxy)ethyl)-2-methylpiperazin-1-yl)-N-(3-(2,6-dioxopiperidin-3-ylamino)-5-fluorophenyl)acetamide]	* (0<Y<=25%)	< 0.1 µM
CC1(C)C(=O)N(c2ccc(C#N)c(C(F)(F)F)c2)C(=S)N1c1ccc(OCCN2CCN(CC(=O)Nc3cc(Cl)cc(NC4CCC(=O)NC4=O)c3)CC2)c(CC(F)F)c1 (stereo not shown) [Example 159, N-(3-chloro-5-(2,6-dioxopiperidin-3-ylamino)phenyl)-2-(4-(2-(4-(3-(4-cyano-3-(trifluoromethyl)phenyl)-5,5-dimethyl-4-oxo-2-thioxoimidazolidin-1-yl)-2-(2,2-difluoroethyl)phenoxy)ethyl)piperazin-1-yl)acetamide]	* (0<Y<=25%)	< 0.1 µM
CC1(C)C(=O)N(c2ccc(C#N)c(C(F)(F)F)c2)C(=S)N1c1ccc(OCCN2CCN(CC(=O)Nc3cccc(NC4CCC(=O)NC4=O)c3)CC2)c(CCF)c1 (stereo not shown) [Example 160, 2-(4-(2-(4-(3-(4-cyano-3-(trifluoromethyl)phenyl)-5,5-dimethyl-4-oxo-2-thioxoimidazolidin-1-yl)-2-(2-fluoroethyl)phenoxy)ethyl)piperazin-1-yl)-N-(3-(2,6-dioxopiperidin-3-ylamino)phenyl)acetamide]	* (0<Y<=25%)	< 0.1 µM
